Laboratory results from patent publication US20250059188A1, “ARYLSULPHONAMIDE COMPOUNDS” (Anaxis Pharma Pty Ltd, priority 2021, published 2025).

Columns and labels:
[1] = molecular target: human MLKL (full length) (Homo sapiens (Human), UniProt Q8NB16); experiment: KINOMEscan binding assay, human MLKL (full length); conditions: equilibrium dissociation constant
Method in brief: (§1)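 In this assay, compounds displace DNA- or phage-tagged kinase from an immobilized ligand, and eluted kinase is quantified by qPCR.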

[2] = molecular target: human RIPK1 (Homo sapiens (Human), UniProt Q13546); experiment: KINOMEscan binding assay, human RIPK1; conditions: equilibrium dissociation constant
Sequence of human RIPK1 (Q13546 whole entry): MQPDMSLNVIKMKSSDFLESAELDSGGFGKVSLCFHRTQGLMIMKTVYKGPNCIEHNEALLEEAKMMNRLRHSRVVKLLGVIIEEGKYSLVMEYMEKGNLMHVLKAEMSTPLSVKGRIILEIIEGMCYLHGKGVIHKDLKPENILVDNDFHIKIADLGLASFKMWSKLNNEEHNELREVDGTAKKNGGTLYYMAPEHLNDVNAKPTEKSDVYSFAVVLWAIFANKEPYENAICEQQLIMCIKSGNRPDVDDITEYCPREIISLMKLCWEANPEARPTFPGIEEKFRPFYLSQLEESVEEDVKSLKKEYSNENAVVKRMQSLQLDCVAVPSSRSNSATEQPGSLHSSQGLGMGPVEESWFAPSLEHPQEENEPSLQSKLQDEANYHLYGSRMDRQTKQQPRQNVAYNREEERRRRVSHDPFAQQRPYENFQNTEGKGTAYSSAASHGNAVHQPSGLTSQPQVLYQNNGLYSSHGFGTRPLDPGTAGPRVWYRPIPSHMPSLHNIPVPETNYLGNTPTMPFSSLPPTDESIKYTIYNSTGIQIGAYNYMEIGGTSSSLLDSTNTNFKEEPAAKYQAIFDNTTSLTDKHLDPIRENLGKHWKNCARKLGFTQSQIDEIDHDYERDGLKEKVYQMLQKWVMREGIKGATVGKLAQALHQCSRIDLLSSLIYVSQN
Method in brief: as §1

[3] = molecular target: human RIPK3 (Homo sapiens (Human), UniProt Q9Y572); experiment: KINOMEscan binding assay, human RIPK3; conditions: equilibrium dissociation constant
Sequence of human RIPK3 (Q9Y572 whole entry): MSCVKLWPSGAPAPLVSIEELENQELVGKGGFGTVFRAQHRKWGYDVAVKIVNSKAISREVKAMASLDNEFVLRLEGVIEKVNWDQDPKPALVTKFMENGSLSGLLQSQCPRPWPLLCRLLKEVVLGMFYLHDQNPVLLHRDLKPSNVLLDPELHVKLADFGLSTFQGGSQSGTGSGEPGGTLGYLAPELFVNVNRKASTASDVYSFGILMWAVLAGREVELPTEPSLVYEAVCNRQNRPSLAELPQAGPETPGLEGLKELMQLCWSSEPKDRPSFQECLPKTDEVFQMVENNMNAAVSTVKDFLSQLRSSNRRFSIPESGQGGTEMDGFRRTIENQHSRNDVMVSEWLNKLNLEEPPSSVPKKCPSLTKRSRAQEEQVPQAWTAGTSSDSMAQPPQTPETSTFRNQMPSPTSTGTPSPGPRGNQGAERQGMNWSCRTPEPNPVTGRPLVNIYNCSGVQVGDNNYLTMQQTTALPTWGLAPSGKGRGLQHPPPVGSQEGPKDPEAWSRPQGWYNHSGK
Method in brief: as §1

[4] = test system: U937 human histiocytic leukemia cell line; experiment: Inhibition of TSQ induced necroptosis in U937 cells (CellTitre-Glo); conditions: Homo sapiens, U-937, TSQ cocktail (TNF, Smac mimetic, Q-VD-OPh), 48 hours, read-out: Inhibition of TSQ-induced necroptosis (IC50 cell-based assay)
Method: Cellular Assay: Screening Compounds for Inhibition of TSQ Induced Necroptosis, 384 Well Plate Format.
(§2) • Cell Line ID: U937 human histiocytic leukemia cell line. • Cell Concentration (cells/well): Final cell density is 20000 cells per well. • Cell growth medium: HT-RPMI medium+7.4% Fetal Bovine Serum (FBS). Cells are cultured in Corning 150 cm^2 tissue culture flasks with vented caps at 37° C./5% CO2. • Incubation: Plates were incubated at 37° C./5% CO2 in a humidified incubator for 48 hours following addition of compounds and death stimuli (TSQ cocktail). • Compound concentration: 36 μM starting concentration, 1:3 dilution, 10 point • DMSO final concentration (% v/v): 0.3%. Compounds in TSQ Cocktail (T: TNF; S: Smac Mimetic; Q: Q-VD-OPh) and their Final Concentrations: • hTNF-Fc (100 ng/ml)—produced by standard procedures as shown in Bossen et al., J. Biol. Chem., 2006, 281(20), 13964-13971. • Compound A (500 nM) —Smac mimetic, Tetralogic and SYNthesis med chem • Q-VD-OPh (10 μM) —MP Biomedicals
(§3) The cellular assay was carried out according to the following steps: • 1. Each well was prepared by sequential addition of: • a. DMSO (control; columns 1-2 and 23-24) or compound in DMSO—addition was performed using acoustic transfer of nL volumes of stock compound to give final test concentrations of 36, 12, 4, 1.3, 0.44, 0.148, 0.049, 0.016, 0.005 and 0.002 μM. All wells were backfilled with DMSO to a final total volume in the well of 100 nL. • b. Following compound/DMSO addition in step (a), 40 μL of cell suspension (5×10^5 cells/mL) was added to provide a final cell concentration of 20,000 cells per well, and • c. Following cell addition in step (b), 10 μL of 5×TSQ cocktail (except to positive controls; columns 1 and 23) was added to each well. • 2. After 48 hours, plate was removed from the 37° C. incubator and equilibrated to room temperature for 45 minutes. • 3. 15 μL of room temperature CellTitre-Glo2™ (Promega™) was added to each well. • 4. Shook plates for 2 minutes (˜600 rpm) and incubated at room temperature for 15 minutes to allow signal to stabilise. • 5. Read luminescence readout on a plate reader.
Percent viability was calculated for each compound according to equation (2): […]
(§4) 10 point titration curves were fitted with the 4 parameter logistic nonlinear regression model and the IC50 reported reflect the inflection point of the curve for curve fitting.
(§5) • Assay involving the TSQ cocktail (T: TNF; S: Smac mimetic; Q: Q-VD-OPh): TSQ treatment ensures that cells specifically undergo necroptotic cell death. TNF activates the TNF receptor, Smac mimetic directs the signal away from proinflammatory signaling and toward the RIPK1/RIPK3-mediated cell death pathways, and Q-VD-OPh ensures that the apoptotic response is blocked leaving only the programmed necrosis response. The compounds' activity (solution in DMSO) tested in this TSQ-induced assay was evaluated by determining the number of viable cells in culture by measuring the amount of ATP present as measured by CelltiterGlo. • Counter screen: In parallel, all compounds were tested for their ability to affect cell viability. The same U937 cells were treated with compound in DMSO without the TSQ cocktail. This counter screen enabled evaluation of off-target effects. In this case, cell viability was measured by CelltiterGlo.

[5] = test system: U937 cells; experiment: Counter screen: U937 cell viability without TSQ cocktail (off-target effect); design: species or system human; conditions: Homo sapiens, U-937, compound without TSQ cocktail, read-out: Off-target effect (IC50 cell-based assay)
Method: as §2, §3, §4, §5

Sequence of human MLKL (full length) (Q8NB16 whole entry): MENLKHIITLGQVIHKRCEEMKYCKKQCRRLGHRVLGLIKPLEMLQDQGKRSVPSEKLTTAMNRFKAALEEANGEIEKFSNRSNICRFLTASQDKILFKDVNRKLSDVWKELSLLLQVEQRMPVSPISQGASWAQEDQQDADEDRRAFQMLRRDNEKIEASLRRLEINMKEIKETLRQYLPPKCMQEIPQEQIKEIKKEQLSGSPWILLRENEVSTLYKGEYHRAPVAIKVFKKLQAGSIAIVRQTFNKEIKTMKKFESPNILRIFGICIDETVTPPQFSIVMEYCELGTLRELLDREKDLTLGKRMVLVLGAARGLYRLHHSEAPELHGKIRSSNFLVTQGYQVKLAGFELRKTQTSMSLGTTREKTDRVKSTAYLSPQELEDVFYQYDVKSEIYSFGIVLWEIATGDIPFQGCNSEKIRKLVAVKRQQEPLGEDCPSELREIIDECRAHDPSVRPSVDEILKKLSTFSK

Kd [1] [µM] | Kd [2] [µM] | Kd [3] [µM] | SMILES | IC50 [4] [µM] | IC50 [5] [µM]
< 0.001 | > 10 | > 10 | C[C@H](Oc1cc(-c2nn(C)c3c(-c4cnn(C5COC5)c4)cnc(N)c23)ccc1NS(=O)(=O)C(F)F)c1ccc(F)cc1 [Compound 38, (S)-N-(4-(4-amino-1-methyl-7-(1-(oxetan-3-yl)-1H-pyrazol-4-yl)-1H-pyrazolo[4,3-c]pyridin-3-yl)-2-(1-(4-fluorophenyl)ethoxy)phenyl)-1,1-difluoromethanesulfonamide] | < 0.01 | > 10
< 0.001 | > 10 | > 10 | C[C@H](Oc1cc(-c2cnn3c(-c4ccncc4)cnc(N)c23)ccc1NS(=O)(=O)C(F)F)c1ccc(F)cc1 [Compound 39, (S)-N-(4-(4-amino-7-(pyridin-4-yl)pyrazolo[1,5-a]pyrazin-3-yl)-2-(1-(4-fluorophenyl)ethoxy)phenyl)-1,1-difluoromethanesulfonamide] | 0.01 to 1 | > 10
0.1 to 10 | > 10 | > 10 | C[C@H](Oc1cc(-c2nn(C)c3c(C4CCN(C)CC4)cnc(N)c23)ccc1NS(=O)(=O)C(F)F)c1ccc(F)cc1 [Compound 42, (S)—N-(4-(4-amino-1-methyl-7-(1-methylpiperidin-4-yl)-1H-pyrazolo[4,3-c]pyridin-3-yl)-2-(1-(4-fluorophenyl)ethoxy)phenyl)-1,1-difluoromethanesulfonamide] | 1 to 10 | > 10

The remaining lines, values behind:

SMILES | Kd [1] [µM] | Kd [2] [µM] | Kd [3] [µM] | IC50 [4] [µM] | IC50 [5] [µM]
C[C@H](Oc1cc(-c2cnn3c(-c4cnn(CCO)c4)cnc(N)c23)ccc1NS(=O)(=O)C(F)F)c1ccc(F)cc1 [Compound 37, (S)-N-(4-(4-amino-7-(1-(2-hydroxyethyl)-1H-pyrazol-4-yl)pyrazolo[1,5-a]pyrazin-3-yl)-2-(1-(4-fluorophenyl)ethoxy)phenyl)-1,1-difluoromethanesulfonamide] | < 0.001 | > 10 | > 10 | 0.01 to 1 | > 10
C[C@H](Oc1cc(-c2nn(C)c3c(-c4ccncn4)cnc(N)c23)ccc1NS(=O)(=O)C(F)F)c1ccc(F)cc1 [Compound 40, (S)—N-(4-(4-amino-1-methyl-7-(pyrimidin-4-yl)-1H-pyrazolo[4,3-c]pyridin-3-yl)-2-(1-(4-fluorophenyl)ethoxy)phenyl)-1,1-difluoromethanesulfonamide] | < 0.001 | > 10 | > 10 | < 0.01 | > 10
C[C@H](Oc1cc(-c2nn(C)c3c(-c4cnn(C5CCOC5)c4)cnc(N)c23)ccc1NS(=O)(=O)C(F)F)c1ccc(F)cc1 (stereo partly drawn) [Compound 41, N-(4-(4-amino-1-methyl-7-(1-(tetrahydrofuran-3-yl)-1H-pyrazol-4-yl)-1H-pyrazolo[4,3-c]pyridin-3-yl)-2-((S)-1-(4-fluorophenyl)ethoxy)phenyl)-1,1-difluoromethanesulfonamide] | < 0.001 | > 10 | > 10 | < 0.01 | > 10
C[C@H](Oc1cc(-c2nn(C)c3c(C4=CCOCC4)cnc(N)c23)ccc1NS(=O)(=O)C(F)F)c1ccc(F)cc1 [Compound 43, (S)-N-(4-(4-amino-7-(3,6-dihydro-2H-pyran-4-yl)-1-methyl-1H-pyrazolo[4,3-c]pyridin-3-yl)-2-(1-(4-fluorophenyl)ethoxy)phenyl)-1,1-difluoromethanesulfonamide] | 0.001 to 0.1 | > 10 | > 10 | 0.01 to 1 | > 10
C[C@H](Oc1cc(-c2nn(C)c3c(-c4cnn(C5CCOCC5)c4)cnc(N)c23)ccc1NS(=O)(=O)CC(F)(F)F)c1ccc(F)cc1 [Compound 44, (S)—N-(4-(4-amino-1-methyl-7-(1-(tetrahydro-2H-pyran-4-yl)-1H-pyrazol-4-yl)-1H-pyrazolo[4,3-c]pyridin-3-yl)-2-(1-(4-fluorophenyl)ethoxy)phenyl)-2,2,2-trifluoroethane-1-sulfonamide] | 0.001 to 0.1 | > 10 | > 10 | 0.01 to 1 | > 10
